One data set concerns pregnant guinea pigs. As to the kind of experiment: Abortive activity in pregnant guinea pigs. It counts as in vivo, guinea pig. Conditions: 30 mg/animal/day s.c., pregnancy days 43 and 44. On the procedure: In female animals, the second day of vaginal opening in the mating cycle was defined as day 1 of pregnancy (pregnancy length approx. 62 days). They were treated on days 43 and 44 by subcutaneous (s.c.) injection of the proprietary compounds EC312, EC313, EC323, and EC328 as well as UPA. All tested compounds were synthesized in Evestra Inc. The dose levels administered were 3, 10, and 30 mg/animal/day. The external genital organs were inspected for the presence of vaginal bleeding and fetal membranes (twice daily). The presence of expelled fetuses and placentae in the cages was also recorded at each inspection.
The animals were sacrificed on day 50 using CO2. Both uterine horns were dissected and their contents were inspected. Fresh corpora lutea (CL) were evidence of a recent ovulation.

The next data set addresses T1, human Erα (Homo sapiens, UniProt P03372).
T1 construct: host or cells: CHO, transient co-transfection
In words: ERα transactivation (CHO, ERE-LUC). Type of data set: cell-based. As for the experimental part: The CHO cell line was selected to express estrogen α and β protein and the gene expression under the tested compounds stimulation was analyzed. The co-transfection with vector encoding the human full-length steroid receptors hERα and hERβ and reporter vector ERE/LUC was performed. Transient and stable transfectants with protein overexpression were induced by tested compounds (17β-estradiol or EC313) or the mixture: estradiol and appropriate range of concentration of EC313. Agonist and antagonist properties of EC313 toward tested receptor ERα and ERβ were analyzed using luminescence detection.
Plasmid included vectors coding sequences for the receptor as well as the reporter gene. […]
The ability of EC313 to agonize and/or antagonize ER receptor expression was analyzed in the following test system: co-transfected CHO cells were stimulated with estradiol (0.009 nM - 1200 nM) and EC313 (0.009 nM - 1200 nM) for detection agonistic activity. The antagonistic activity was assessed during the competitive interaction between EC313 (0.009 nM - 1200nM) and an appropriate concentration of estradiol (see Table 3 ). […] After incubating the cells for 24h with the tested compounds, the luminescent signal generated by the luciferase activity was detected.

The subject of the next data set is T47D cells. As to the kind of experiment: Proliferation / arrest in Go/G1 in T47D cells. Type of data set: cell-based, human. Also on record: key to Arrest in Go/G1: ↓/↑ - decreased/increased action of tested compounds.; ↓/↑ - decreased/increased action of tested compounds.
For data set [1], the system named is human uterine fibroid xenografts. Also on record: method as in PMID 31754172. The settings on record: ref [2], cited from earlier work.
Another data set addresses human PRA (Homo sapiens, UniProt P06401). In words: PR-A transactivation (CHO, MMTV-LUC). Type of data set: cell-based.
Data set [2] relates to estrogen-primed endometrium of immature rabbits. In words: McPhail assay, estrogen-primed rabbit endometrium. Type of data set: in vivo. On the procedure:
The secretory transformation of estrogen-primed endometrium of immature rabbits indicates the strength of the progestagenic action on the endometrium of the chosen test compound. The simultaneous administration of test compounds with progesterone can indicate potential anti-progestagenic actions.
Female rabbits received daily s.c. injections of 5.0 µg 17β-Estradiol/per animal for 6 days leading to the proliferation of the endometrium. From day 7 to day 13 the animals received doses of vehicle, EC313 (1 to 30 mg/animal/day s.c) or progesterone. On day 14, the animals were sacrificed and the uteri were processed for histological evaluation and the secretory endometrial transformation was rated according to a modified McPhail score (1 – 4).
The rating scale ranges from 1 (no or very low secretory, transformation, or agonistic activity) to 4 (highest secretory, transformation, or agonistic activity). The McPhail score of 2 (median) was selected for the comparison. The antagonistic activity was measured by the concomitant administration of progesterone ([…] s.c.).

A short description of another data set: Aqueous solubility. Type of data set: physicochemical.

Molecules are shown by their SMILES. Several values for one entry are separate records, joined by “and”; a condition that tells them apart may be missing. Identical values can stand only once. Marks after values point to notes of the source that are not given here.

In general, IC50 refers to the concentration needed to halve the response being measured. Broadly, the EC50 is the concentration giving half of the maximal effect.

human PRA, sequence (P06401 165-933): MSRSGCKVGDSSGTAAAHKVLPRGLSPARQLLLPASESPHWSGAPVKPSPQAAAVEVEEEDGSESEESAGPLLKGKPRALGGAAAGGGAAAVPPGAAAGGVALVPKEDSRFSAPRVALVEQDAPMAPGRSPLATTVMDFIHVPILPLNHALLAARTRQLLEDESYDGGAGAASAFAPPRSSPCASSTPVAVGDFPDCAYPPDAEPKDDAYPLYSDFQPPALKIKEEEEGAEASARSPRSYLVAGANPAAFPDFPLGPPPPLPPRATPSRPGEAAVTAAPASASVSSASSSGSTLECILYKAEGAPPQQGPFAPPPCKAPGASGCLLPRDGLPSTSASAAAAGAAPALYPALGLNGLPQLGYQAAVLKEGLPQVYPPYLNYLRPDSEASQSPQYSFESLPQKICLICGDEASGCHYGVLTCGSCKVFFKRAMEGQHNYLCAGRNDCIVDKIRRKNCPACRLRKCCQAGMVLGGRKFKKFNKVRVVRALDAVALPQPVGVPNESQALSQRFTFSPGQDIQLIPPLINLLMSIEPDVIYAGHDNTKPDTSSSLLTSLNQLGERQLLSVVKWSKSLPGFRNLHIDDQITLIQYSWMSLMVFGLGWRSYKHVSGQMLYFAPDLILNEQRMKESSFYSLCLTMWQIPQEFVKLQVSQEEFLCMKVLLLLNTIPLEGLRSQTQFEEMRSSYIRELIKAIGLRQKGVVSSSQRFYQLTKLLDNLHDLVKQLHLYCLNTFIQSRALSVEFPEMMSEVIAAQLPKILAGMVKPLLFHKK
T1 sequence (P03372 whole entry): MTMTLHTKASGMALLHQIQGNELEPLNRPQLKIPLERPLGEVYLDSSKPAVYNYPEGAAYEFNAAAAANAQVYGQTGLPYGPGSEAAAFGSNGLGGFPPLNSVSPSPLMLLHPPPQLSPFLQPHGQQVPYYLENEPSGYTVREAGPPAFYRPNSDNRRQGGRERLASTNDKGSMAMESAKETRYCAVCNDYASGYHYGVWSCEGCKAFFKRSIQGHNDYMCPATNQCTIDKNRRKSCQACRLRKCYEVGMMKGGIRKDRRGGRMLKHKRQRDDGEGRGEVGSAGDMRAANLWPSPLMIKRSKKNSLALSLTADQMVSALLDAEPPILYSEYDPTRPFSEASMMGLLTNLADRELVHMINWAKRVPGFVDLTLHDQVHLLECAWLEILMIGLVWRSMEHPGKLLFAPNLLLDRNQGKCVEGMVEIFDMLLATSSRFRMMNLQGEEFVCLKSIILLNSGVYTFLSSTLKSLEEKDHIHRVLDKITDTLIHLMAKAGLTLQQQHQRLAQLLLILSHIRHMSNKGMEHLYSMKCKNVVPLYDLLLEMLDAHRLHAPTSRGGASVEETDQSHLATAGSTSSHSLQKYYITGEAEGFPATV
Procedure for human PRA: Due to the existence of two isoforms of the PR receptor (PRA and PRB) and the fact that both of them control expression of a largely different set of genes, separate assays for each of them were carried out.
In order to develop the transfection assay, plasmids were generated and isolated. Plasmids included vectors with the coding sequences for the receptor as well as the reporter gene, respectively. The vector pcDNA3.1 coding sequence for the full length of human PRA and PRB (cDNA ORF clone in pcDNA3.1+/C-(K)-DYK) was used as an expression vector for PR isoform A and B, respectively. Vector pGL4.36 coding for the progesterone responsive element MMTV and firefly luciferase reporter vector [luc2P/Hygro] were used as reporter systems (pGL4.36-MMTV/LUC).
A sufficient transactivation signal was achieved using stable transfection for the human PRA and PRB receptors and transient transfection for the MMTV-luciferase reporter gene. Therefore, the first stable transfection with the receptor of interest was performed. Thus, 0.5x10^6 CHO cells per well were plated into 6-well plates in transfection medium w/o antibiotics (RPMI phenol-free, 10% FBS,2mM L-glutamine). When the cells reached 80% confluency, transfection with receptor using FuGENE 6 in Opti-MEM medium was accomplished according to the manufacturer’s instruction. After 48h of transfection, stably transfected cells were cultured in a growth medium containing an antibiotic (G418 500 µg/mL). Only cells with the resistance gene (resistance to G418), which had been transfected together with the DNA for PRA and PRB were able to grow in this medium. Consequently, growing cell clones were selected for further steps as stable transfectants. The CHO cells stably transfected with the expression of PRA or PRB were transiently transfected with promoter MMTV/LUC vectors. […]
After 24h incubation of cells with tested compounds, luciferase activity was measured using a VICTOR™ X Multilabel Plate Reader -Perkin Elmer.

Turning to `C[C@]12C[C@H](c3ccc(-c4ccoc4)cc3)C3=C4CCC(=O)C=C4CC[C@H]3[C@@H]1CC[C@]21OCCC1=C(F)F` [EC313], the “expulsion of uterine contents / fetal expulsions (animals)” value with pregnant guinea pigs is listed as “No fetal expulsions”. On human Erα, the “agonistic or antagonistic activity” value is reported as “no agonistic or antagonistic activity”. In the data set with T47D cells, the “estradiol-induced proliferation of T47D” value was “counteracts the estradiol-induced proliferation of T47D”. Further, the “Arrest in Go/G1” value in the data set on T47D cells (Proliferation, T47D cells, statistical significance not always reached) is listed as “↑”. The “uterine fibroid markers desmin and collagen” value in data set [1] (Part A, 0.1 and 1.0 mg EC313/kg/day) is recorded as “markedly reduced”. The fibroid xenograft weight entry in data set [1] (Part A, 0.1 and 1.0 mg/kg/day s.c., 60 days) is reported as “reduced the fibroid xenograft weight dose-dependently”. In data set [1] (Part A, vs control p< 0.001, vs UPA p< 0.01), the “levels of ER and PR in grafts (immunohistochemistry)” value is reported as “reduced”. Also, in data set [1] (Part A, vs control, p< 0.0001), the “E2-induced proliferation in xenograft fibroids” value is recorded as “blocked significantly”. For the same compound, the “lowest effective dosage, uterine fibroid model” value in data set [1] (demonstrated previously) is 0.1 mg/kg/day s.c. Besides, the IC50 at human PRA (Promegestone 35 nM, read-out: IC50, antagonism of Promegestone-induced reporter gene expression) is 7.96 nM and 8 nM. Moreover, the EC50 at human PRA (weak agonistic activity, in the range of the maximum concentration tested) was about 1000 nM. Further, the “Quotient between antagonistic and agonistic action” value in data set [2] (McPhail score 2 doses) is recorded as ~ 10.0*. Besides, the “maximal effect, McPhail score (average per treatment group)” value in data set [2] (agonistic, 1 to 30 mg/animal/day s.c., scale 1-4) is on record as at most 2.5. The “Score 2 for PR-agonistic activity” value in data set [2] (dose giving McPhail score 2) is ~ 1.0 mg/animal/day s.c. The “Score 2 for PR-antagonistic activity” value in data set [2] (dose giving McPhail score 2, concomitant progesterone (1 g/animal/day [sic] s.c.)) is ~ 10.0 mg/animal/day s.c. In addition, the “relatively more agonistic than antagonistic effects in comparison with Asoprisnil” value in data set [2] (rabbit, in vivo) is recorded as “approx. 7 times”. For the same compound, the aqueous solubility result in “Aqueous solubility” is recorded as “very low aqueous solubility”.

The values above are taken from publication PMC10520499, “Next step in the development of mesoprogestins: the preclinical profile of EC313” (Frontiers in Endocrinology, 2023).
